The subject of data set [1] is HIF-1α-mediated HRE transcriptional activity. The data set can be described thus: Assay for inhibition of HIF-1α-mediated transcriptional activity (HRE reporter assay). The class given is cell-based, human. As to conditions: Homo sapiens, HCT-116, HCT116 cells, 12 hours under hypoxia (1% O2), read-out: Inhibitory activity against HIF-1α (10 μM). Here is the method: <Experiment 1> Assay for Inhibition of HIF-1α-Mediated Transcriptional Activity (HRE Reporter Assay)
The compounds can be developed as anti-cancer drugs, because the compounds inhibiting HIF-1α-mediated HRE transcriptional activity induced by hypoxia can suppress the growth and metastasis of cancer.
Inhibitory effects of the compounds according to the present invention, from Formula I-1 to I-42, on HIF-1α-mediated transcriptional activity were evaluated using this assay. pGL3-HRE-luciferase vector was constructed as follows. Six copies of HRE (Hypoxia Responsive Element, 5′-ACGTG-3′) from human VEGF genes were inserted into the multi-cloning site of a pGL3-basic vector (Promega). A luciferase gene was used as a reporter gene.
In detail, HCT116(ATCC #CCL-247) human colon cancer cells were seeded in 48-well cell culture plates. The cells were co-transfected with 25 ng of pGL3-HRE-luciferase and 2.5 ng of Renila control vectors using Polyfect reagent next day. After 24 hours of incubation, the cells were incubated for an additional 4 hours with replaced cell culture media. The cells were treated with various concentrations (0, 1, 3, 5, 10, and 20 μM) of the above compounds according to the present invention and incubated for 12 hours under hypoxia (1% O2, 94% N2, and 5% CO2). The luciferase assay was performed using a dual-luciferase reporter assay system (Promega). After cell lysate preparation with RIPA buffer, induced luciferase activity under hypoxic conditions was determined to examine inhibitory effects of the compounds according to the present invention, from Formula I-1 to I-42, on HIF-1α-mediated transcriptional activity.
(Reporter assays use an easily measured gene product as a stand-in for the process of interest.)

Data set [2] has as its system HCT116 colon cancer cells. The data set can be described thus: In vivo anti-cancer activity by oral administration, HCT116 tumor in nude mice. Also on record: species or system BALB/c nu/nu mice. As to conditions: for inhibition in vivo at 20 mg/kg: Mus musculus. Here is the method:
<Example 4> In Vivo Anti-Cancer Activity of Compounds by Oral Administration
(§1) In vivo anti-cancer activity of the compounds according to the present invention, I-3, I-6, I-8, I-16, I-19, I-22, I-23, and I-24, was measured in mice to evaluate in vivo efficacy by oral administration. Specifically, the nude mice were divided into test groups and control groups, each consisting of 4 mice. In vivo efficacy was evaluated by measuring body weight, tumor volume, and tumor weight.
(§2) Female nude mice 6 weeks old (BALB/c nu/nu, Charles River) were bred in germ-free breeding rooms maintained at constant temperature and humidity. After the nude mice were anesthetized, HCT116 colon cancer cells were implanted at a count of […] cells/mouse into the rectum in BALB/c nu/nu mice and then the incisions were closed with surgical clips. The size of tumor was measured by a caliper. When the size of transplanted tumor reached to 50˜60 mm^3, the above compounds according to the present invention were administered. In more detail, after the above compounds in test groups were dissolved at concentration of 20 mg/kg in a solvent containing 80% of physiological saline, 10% of DMAC (dimethylacetamide), and 10% Tween 80 (hereinafter referred to as ‘Solvent A’), […] of dissolved compounds were orally administered once a day. Mice in control groups were treated with […] of Solvent A alone once daily.
(§3) Tumor volume and body weight were measured to identify in vivo anti-cancer activity of the compounds according to the present invention by repetitive oral administration. Tumor volume and tumor growth inhibition (TGI) in Table 2 were calculated according to the below Mathematic FIG. 1 and FIG. 2, respectively. Tumor growth inhibition was converted to a percentage in Table 2.

Data set [3] in a line: Body weight change and side effects during 14 days of oral treatment in nude mice. The class given is in vivo, BALB/c nu/nu mice. Here is the method:
as §1, §2, §3
Moreover, severe side effects and statistically significant changes of body weight in all mice treated compounds were not shown for 14 days, comparing to control groups treated with vehicle. (Table 3)

Another data set deals with GAPDH. The data set can be described thus: GAPDH expression level (internal control) in western blot, HCT116 cells. The class given is cell-based, human. The settings on record: HCT116, hypoxia 1% O2, 0-30 μM, 12 hours, FIG. 1. On the procedure:
(§4) First, HCT116 human colon cancer cells (ATCC #CCL-247) were plated at the concentration of 2×10^5 cells/ml. After 24 hours, the cells were incubated under hypoxia (1% O2, 94% N2, and 5% CO2, expressed as 1% O2 in FIG. 1) for 4 hours in order to induce HIF-la accumulation. Cells were treated with the compounds at various concentrations (0, 3, 10, 20, and 30 μM) for 12 hours under hypoxia. The cells were then harvested, and lysed in RIPA buffer to obtain nuclear extracts. Cells grown at 20% O2 (normoxia) were used as control groups to compare HIF-1α-mediated gene expression under each condition. 30 μg of the nuclear extracts per sample was separated by SDS-PAGE (sodium dodecyl sulfate-polyacrylamide gel electrophoresis), and was then transferred to PVDF (polyvinylidene fluoride membrane) membranes. After membranes were probed with HIF-1α antibodies (R&D System), HIF-1α proteins were detected with HRP-conjugated secondary antibodies (Amersham-Pharmacia). GAPDH (Glyceraldehyde 3-phosphate dehydrogenase) was used as an internal control for loading in western blot analysis.
On the technique in general: Immunoblotting shows a protein as a band on a membrane.

The next data set addresses T1, HIF-1α (Homo sapiens, UniProt Q16665).
T1 construct: endogenous in cells; host or cells: HCT116 human colon cancer cells (ATCC #CCL-247)
The data set can be described thus: Inhibition of hypoxia-induced HIF-1α accumulation, western blot in HCT116 cells. The class given is cell-based. The settings on record: HCT116, hypoxia 1% O2, 0-30 μM, 12 hours, FIG. 1. On the procedure: <Experiment 2> In Vitro Studies for Inhibition of Hypoxia-Induced HIF-1α Accumulation
Inhibition of HIF-1α accumulation by the compounds according to the present invention was determined in HCT116 human colon cancer cells. In particular, western blot analysis was used to identify the compounds, I-3, I-6, I-8, I-16, I-19, I-22˜I-24, and I-27˜I-36, which inhibited HIF-1α accumulation under hypoxia.
as §4

Setting [4] is: HCT-116, 72 h, day 3, 20 mg/kg oral once a day, read-out: TGI (tumor growth inhibition), tumor volume.
[5] abbreviates: HCT-116, 120 h, day 5, 20 mg/kg oral once a day, read-out: TGI (tumor growth inhibition), tumor volume.
[6] abbreviates: HCT-116, 168 h, day 7, 20 mg/kg oral once a day, read-out: TGI (tumor growth inhibition), tumor volume.
[7] abbreviates: HCT-116, 240 h, day 10, 20 mg/kg oral once a day, read-out: TGI (tumor growth inhibition), tumor volume.
Where [8] appears, read: HCT-116, 288 h, day 12, 20 mg/kg oral once a day, read-out: TGI (tumor growth inhibition), tumor volume.
[9] abbreviates: HCT-116, 336 h, day 14, 20 mg/kg oral once a day, read-out: TGI (tumor growth inhibition), tumor volume.
Setting [10] is: HCT-116, 336 h, day 14, 20 mg/kg oral once a day, read-out: TGI (tumor growth inhibition), tumor weight.
Where [11] appears, read: day 3, 20 mg/kg oral once a day.
[12] abbreviates: day 5, 20 mg/kg oral once a day.
Where [13] appears, read: day 7, 20 mg/kg oral once a day.
Setting [14] is: day 10, 20 mg/kg oral once a day.
Where [15] appears, read: day 12, 20 mg/kg oral once a day.
The mark [16] stands for this setting: day 14, 20 mg/kg oral once a day.
Setting [17] is: day 0, 20 mg/kg oral once a day.

The structures appear in SMILES notation. Read-outs that look alike come from different tables or passages of the source.

T1 sequence (Q16665 whole entry): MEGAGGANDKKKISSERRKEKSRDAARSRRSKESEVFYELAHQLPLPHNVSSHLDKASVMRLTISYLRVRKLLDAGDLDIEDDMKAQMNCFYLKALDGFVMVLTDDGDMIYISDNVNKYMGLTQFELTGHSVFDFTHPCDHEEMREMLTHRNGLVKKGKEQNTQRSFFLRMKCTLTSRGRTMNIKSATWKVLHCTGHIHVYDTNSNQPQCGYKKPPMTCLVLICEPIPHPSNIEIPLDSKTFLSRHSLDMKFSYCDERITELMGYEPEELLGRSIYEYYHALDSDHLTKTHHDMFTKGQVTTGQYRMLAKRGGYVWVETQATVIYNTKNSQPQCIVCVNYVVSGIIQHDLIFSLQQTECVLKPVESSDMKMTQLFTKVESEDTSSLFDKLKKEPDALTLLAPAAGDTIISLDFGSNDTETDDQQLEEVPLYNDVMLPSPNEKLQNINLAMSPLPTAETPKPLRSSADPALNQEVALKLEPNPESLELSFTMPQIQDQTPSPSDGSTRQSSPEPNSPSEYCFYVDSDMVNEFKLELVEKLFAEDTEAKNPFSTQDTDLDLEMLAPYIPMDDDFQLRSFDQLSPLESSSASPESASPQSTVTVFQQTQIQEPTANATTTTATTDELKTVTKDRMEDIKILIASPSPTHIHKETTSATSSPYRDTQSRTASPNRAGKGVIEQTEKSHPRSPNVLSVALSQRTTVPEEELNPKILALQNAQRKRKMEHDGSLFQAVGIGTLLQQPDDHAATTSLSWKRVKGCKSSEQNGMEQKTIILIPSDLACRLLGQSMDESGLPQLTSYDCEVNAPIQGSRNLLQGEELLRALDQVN

In the case of `CN1CCN(C(=O)CCOc2ccc(C34CC5CC(CC(C5)C3)C4)cc2)CC1` [Compound I-8, 3-(4-(Adamantan-1-yl)phenoxy)-1-(4-methylpiperazin-1-yl)propan-1-one], the inhibition at 10 µM in data set [1] fell in the range of 51 to 75%. Besides, the inhibition in vivo at 20 mg/kg in data set [2] (setting [4]) turned out to be 27.6%; in data set [2] (setting [5]) it was 29%; in data set [2] (setting [6]), 30%; in data set [2] (setting [7]) it was 29.3%; in data set [2] (setting [8]), 28.7%; in data set [2] (setting [9]), 29.3%. In data set [2] (setting [10]), the inhibition in vivo at 20 mg/kg is 31%. In addition, the Tumor volume came to 24.6 ± 5.1 mm^3 in data set [2] (setting [11]); 65.5 ± 9.0 mm^3 in data set [2] (setting [12]); 122.2 ± 7.9 mm^3 in data set [2] (setting [13]); 184.3 ± 10.0 mm^3 in data set [2] (setting [14]); 319.7 ± 22.0 mm^3 in data set [2] (setting [15]); 471.1 ± 29.0 mm^3 in data set [2] (setting [16]). In data set [2] (setting [16]), this compound displayed a Tumor weight of 1634.6 ± 357.2 mg. Further, the Body weight change in data set [3] (setting [17]) amounted to 100.0 ± 0.0%; in data set [3] (setting [11]), 102.2 ± 2.8%; in data set [3] (setting [12]) it was 103.4 ± 2.8%; in data set [3] (setting [13]), 102.6 ± 2.2%; in data set [3] (setting [14]), 102.9 ± 1.5%; in data set [3] (setting [15]), 101.9 ± 1.0%. This compound displayed a Body weight change in data set [3] (setting [16]) of 101.7 ± 2.6%. Also, the GAPDH expression levels entry with GAPDH was “did not affect GAPDH expression levels”. The HIF-1α degradation entry on HIF-1α is “promoted HIF-1α degradation”. On HIF-1α, the “inhibitory effects on HIF-1α accumulation” value was “significant inhibitory effects on HIF-1α accumulation”.

Regarding `CN1CCN(C(=O)C(C)(C)Oc2ccc(C34CC5CC(CC(C5)C3)C4)cc2)CC1` [Compound I-23, 2-(4-(Adamantan-1-yl)phenoxy)-2-methyl-1-(4-methylpiperazin-1-yl)propan-1-one], the inhibition at 10 µM in data set [1] fell in the range of 76 to 100%. The inhibition in vivo at 20 mg/kg is 13.5% in data set [2] (setting [4]); 14.8% in data set [2] (setting [5]); 12.7% in data set [2] (setting [6]); 13.1% in data set [2] (setting [7]); 13.1% in data set [2] (setting [8]); 14.6% in data set [2] (setting [9]). Further, the inhibition in vivo at 20 mg/kg in data set [2] (setting [10]) is 14.5%. For the same compound, the Tumor volume stood at 40.9 ± 8.2 mm^3 in data set [2] (setting [11]); 98.0 ± 13.9 mm^3 in data set [2] (setting [12]); 182.4 ± 19.9 mm^3 in data set [2] (setting [13]); 352.7 ± 53.6 mm^3 in data set [2] (setting [14]); 577.3 ± 74.1 mm^3 in data set [2] (setting [15]); 987.6 ± 143.7 mm^3 in data set [2] (setting [16]). Also, the Tumor weight in data set [2] (setting [16]) is given as 3659.9 ± 434.8 mg. Also, the Body weight change was 100.0 ± 0.0% in data set [3] (setting [17]); 100.8 ± 1.1% in data set [3] (setting [11]); 101.0 ± 1.6% in data set [3] (setting [12]); 100.9 ± 0.7% in data set [3] (setting [13]); 101.9 ± 1.1% in data set [3] (setting [14]); 101.6 ± 1.3% in data set [3] (setting [15]). The compound also showed a Body weight change in data set [3] (setting [16]) of 102.0 ± 2.0%.

With `CN(C)CCNC(=O)C(C)(C)Oc1ccc(C23CC4CC(CC(C4)C2)C3)cc1` [Compound I-24, 2-(4-(Adamantan-1-yl)phenoxy)-N-(2-(dimethylamino)ethyl)-2-methylpropanamide], in data set [1], the inhibition at 10 µM lay within 76 to 100%. In addition, the inhibition in vivo at 20 mg/kg in data set [2] (setting [4]) turned out to be 19.5%; in data set [2] (setting [5]), 18.4%; in data set [2] (setting [6]), 15.4%; in data set [2] (setting [7]), 15.8%; in data set [2] (setting [8]) it was 14.3%; in data set [2] (setting [9]), 14.4%. Further, the inhibition in vivo at 20 mg/kg in data set [2] (setting [10]) stood at 13.9%. The Tumor volume in data set [2] (setting [11]) was 38.1 ± 6.4 mm^3; in data set [2] (setting [12]), 93.8 ± 21.0 mm^3; in data set [2] (setting [13]), 176.8 ± 27.6 mm^3; in data set [2] (setting [14]) it was 341.7 ± 58.8 mm^3; in data set [2] (setting [15]), 569.1 ± 72.4 mm^3; in data set [2] (setting [16]), 990.1 ± 140.3 mm^3. Besides, the Tumor weight in data set [2] (setting [16]) was 3685.5 ± 357.5 mg. Besides, the Body weight change in data set [3] (setting [17]) came out at 100.0 ± 0.0%; in data set [3] (setting [11]) it was 103.5 ± 3.0%; in data set [3] (setting [12]), 104.0 ± 3.6%; in data set [3] (setting [13]), 103.6 ± 3.6%; in data set [3] (setting [14]), 105.0 ± 4.0%; in data set [3] (setting [15]), 104.9 ± 4.1%. Moreover, the Body weight change in data set [3] (setting [16]) is listed as 106.5 ± 4.5%.

The values above are taken from patent US9789114B2, “Compounds as HIF-1α inhibitors and manufacturing process thereof” (DONGGUK UNIVERSITY INDUSTRY-ACADEMIC COOPERATION FOUNDATION, priority 2011, dated 2017).
